Measurements published in EP0021678B1, “1-Sulpho-2-oxoazetidine derivatives, their production and pharmaceutical compositions thereof” (Takeda Chemical Industries, Ltd., priority 1979, dated 1981).

Experiments:
Assay in all cases: Anti-bacterial test, minimum inhibitory concentration on agar
Assay type in all cases: cell-based
[1] = system: Acinetobacter calcoaceticus IFO 13006; conditions: Acinetobacter calcoaceticus IFO 13006; medium TSA
From the text: (§1) The compound (I) thus obtained is useful as a drug, being active against certain gram-positive and gram-negative bacteria. By way of example, the compounds are active against the following micro-organisms.
(§2) The media and compounds employed in the anti-bacterial test are as follows: • Media: • TSA = Trypticase soy agar • [Baltimore Biologicals (U.S.A.)] • B-TSA = Blood trypticase soy agar • Compounds: • Compound A = Sodium 3-[2-(2-amino-4-thiazolyl)-2-methoxyiminoacetamido]-2-oxo-azetidine-1-sulphonate • Compound B = Sodium 3-[D(-)-N-(4-ethyl-2,3-dioxo-1-piperazinocarbonyl)-phenyl-glycin- amido]-2-oxoazetidine-1-sulphonate • Compound C = Sodium 3-[D(-)-N-(4-ethyl-2,3-dioxo-1-piperazinocarbonyl)phenylglycinamido]-3-methoxy-2-oxoazetidine-1-sulphonate • Compound D = Sodium 3-[2-(4-ethyl-2,3-dioxo-1-piperazinocarboxamido)-2-(2-amino-4-thiazolyl)-acetamido]-2-oxoazetidine-1-sulphonate • Compound E = Sodium 3-[DL-2-(4-ethyl-2,3-dioxo-1-piperazinocarboxamido)-2-thienylacetamido]-2-oxoazetidine-1-sulphonate • Compound F = Sodium 3-[D-2-(4-ethyl-2,3-dioxo-1-piperazinocarboxamido)-2-thienylacetamido]-2-oxoazetidine-1-sulphonate • Compound G = Sodium 3-[D-2-(4-n-octyl-2,3-dioxo-1-piperazinocarboxamido)-2-phenylacetamido]-2-oxoazetidine-1-sulphonate • Compound H = Sodium 3-[2-(4-n-octyl-2,3-dioxo-1-piperazinocarboxamido)-2-(2-amino-4-thiazolyl)-acetamido]-2-oxoazetidine-1-sulphonate • Compound I = Sodium 3-[D-2-[(2-oxo-3-furfurylideneaminoimidazolidin-1-yl)-carboxamido]-2-phenylacetamido]-2-oxoazetidine-1-sulphonate • Compound J = Sodium 3-[2-(4-n-octyl-2,3-dioxo-1-piperazinocarboxamido)-2-thienylacetamido]-2-oxoazetidine-1-sulphonate • Compound K = Sodium 3-[D-2-[[2-oxo-3-(thiophen-2-aidoimino)-imidazolidin-1-yl]-carboxamido]-2-phenylacetamido]-2-oxoazetidine-1-sulphonate • Compound L = Sodium 3-[2-[(2-oxo-3-furfurylideneaminoimidazolidin-1-yl)-carboxamido]-2-thienylacetamido]-2-oxoazetidine-1-sulphonate

[2] = system: Bordetella bronchiseptica Sagami; conditions: Bordetella bronchiseptica Sagami; medium B—TSA
From the text: as §1, §2

Candida albicans TA = conditions: Candida albicans TA, medium TSA
From the text: as §1, §2

[3] = system: Citrobacter freundii IFO 12681; conditions: Citrobacter freundii IFO 12681; medium TSA
From the text: as §1, §2

[4] = system: Corynebacterium diphtheriae Toronto; conditions: Corynebacterium diphtheriae Toronto, medium B—TSA
From the text: as §1, §2

[5] = system: Enterobacter cloacae IFO 12937; conditions: Enterobacter cloacae IFO 12937, medium TSA
From the text: as §1, §2

[6] = system: Escherichia coli NIHJ JC—2; conditions: Escherichia coli NIHJ JC—2, medium TSA
From the text: as §1, §2

Escherichia coli O—111 = conditions: medium TSA
From the text: as §1, §2

Escherichia coli T-7 = conditions: medium TSA
From the text: as §1, §2

Klebsiella pneumoniae DT = conditions: for Minimum inhibitory concentration: Klebsiella pneumoniae DT, medium TSA
From the text: as §1, §2

[7] = system: Proteus mirabilis IFO 3849; conditions: Proteus mirabilis IFO 3849, medium TSA
From the text: as §1, §2

[8] = system: Proteus morganii IFO 3168; conditions: Proteus morganii IFO 3168, medium TSA
From the text: as §1, §2

[9] = system: Proteus vulgaris IFO 3988; conditions: for Minimum inhibitory concentration: Proteus vulgaris IFO 3988, medium TSA
From the text: as §1, §2

[10] = system: Pseudomonas aeruginosa IFO 3455; conditions: Pseudomonas aeruginosa IFO 3455; medium TSA
From the text: as §1, §2

[11] = system: Pseudomonas aeruginosa U 31; conditions: Pseudomonas aeruginosa U 31, medium TSA
From the text: as §1, §2

[12] = system: Serratia marcescens IFO 12648; conditions: Serratia marcescens IFO 12648, medium TSA
From the text: as §1, §2

[13] = system: Staphylococcus aureus 1840; conditions: Staphylococcus aureus 1840; medium TSA
From the text: as §1, §2

[14] = system: Staphylococcus aureus 308A—1; conditions: Staphylococcus aureus 308A—1; medium TSA
From the text: as §1, §2

[15] = system: Staphylococcus aureus FDA209P; conditions: Staphylococcus aureus FDA209P
From the text: as §1, §2

[16] = system: Streptococcus faecium IFO 3128; conditions: Streptococcus faecium IFO 3128; medium B—TSA
From the text: as §1, §2

[17] = system: Streptococcus mitis America; conditions: Streptococcus mitis America; medium B—TSA
From the text: as §1, §2

[18] = system: Streptococcus pneumoniae Type I; conditions: Streptococcus pneumoniae Type I; medium B—TSA
From the text: as §1, §2

[19] = system: Streptococcus pyogenes E—14; conditions: Streptococcus pyogenes E—14, medium B—TSA
From the text: as §1, §2

[20] = system: Streptococcus pyogenes S—8; conditions: Streptococcus pyogenes S—8, medium B—TSA
From the text: as §1, §2

[21] = read-out: Minimum inhibitory concentration

Row | SMILES | Minimum inhibitory concentration [1] [µg/mL] | Minimum inhibitory concentration [2] [µg/mL] | Minimum inhibitory concentration (Candida albicans TA) [µg/mL] | Minimum inhibitory concentration [3] [µg/mL] | Minimum inhibitory concentration [4] [µg/mL] | Minimum inhibitory concentration [5] [µg/mL] | Minimum inhibitory concentration [6] [µg/mL] | Minimum inhibitory concentration (Escherichia coli T-7) [µg/mL] | Minimum inhibitory concentration (Klebsiella pneumoniae DT) [µg/mL] | Minimum inhibitory concentration [7] [µg/mL] | Minimum inhibitory concentration [8] [µg/mL] | Minimum inhibitory concentration [9] [µg/mL] | Minimum inhibitory concentration [10] [µg/mL] | Minimum inhibitory concentration [11] [µg/mL] | Minimum inhibitory concentration [12] [µg/mL] | Minimum inhibitory concentration [13] [µg/mL] | Minimum inhibitory concentration [14] [µg/mL] | Minimum inhibitory concentration ([15]; medium B—TSA) [µg/mL] | Minimum inhibitory concentration ([15]; medium TSA) [µg/mL] | Minimum inhibitory concentration [16] [µg/mL] | further results
1 | CCN1CCN(C(=O)NC(C(=O)NC2CN(S(=O)(=O)[O-])C2=O)c2cccs2)C(=O)C1=O.[Na+] (racemic) [Compound E, Sodium 3-[DL-2-(4-ethyl-2,3-dioxo-1-piperazinocarboxamido)-2-thienylacetamido]-2-oxoazetidine-1-sulphonate] | 50 | >100 | >100 | 3.13 | 0.39 | 3.13 | 1.56 | >100 | 0.78 | 0.78 | 12.5 | <0.1 | 3.13 | >100 | 3.13 | 25 | 6.25 | 6.25 | 6.25 | >100 | Minimum inhibitory concentration (Escherichia coli O—111): 0.2 µg/mL; Minimum inhibitory concentration [17]: 25 µg/mL; Minimum inhibitory concentration [18]: 3.13 µg/mL; Minimum inhibitory concentration [19]: 1.56 µg/mL; Minimum inhibitory concentration [20]: 3.13 µg/mL
2 | CCN1CCN(C(=O)N[C@@H](C(=O)NC2(OC)CN(S(=O)(=O)O)C2=O)c2ccccc2)C(=O)C1=O (single isomer, unassigned) [Compound C, Sodium 3-[D(-)-N-(4-ethyl-2,3-dioxo-1-piperazinocarbonyl)phenylglycinamido]-3-methoxy-2-oxoazetidine-1-sulphonate] | – | – | – | – | – | – | – | – | – | – | – | – | – | – | – | – | – | – | – | – | MIC (Candida albicans TA; [21]): > 100 µg/mL; MIC [4, 21]: 50 µg/mL; MIC ([5]; IFO12937, read-out: Minimum inhibitory concentration): > 100 µg/mL; MIC [6, 21]: 50 µg/mL; MIC (Escherichia coli O—111): 12.5 µg/mL; MIC (Klebsiella pneumoniae DT; Klebsiella pneumoniae, read-out: Minimum inhibitory concentration): 12.5 µg/mL; MIC ([7]; IFO3849, read-out: Minimum inhibitory concentration): 50 µg/mL; MIC ([8]; Morganella morganii, IFO3168, read-out: Minimum inhibitory concentration): > 100 µg/mL; MIC ([9]; Proteus vulgaris, IFO3988, read-out: Minimum inhibitory concentration): 12.5 µg/mL; MIC ([11]; U31, read-out: Minimum inhibitory concentration): > 100 µg/mL; MIC ([12]; IFO12648, read-out: Minimum inhibitory concentration): 50 µg/mL; MIC ([15]; Staphylococcus aureus, FDA209P, medium TSA, read-out: Minimum inhibitory concentration): 100 µg/mL; MIC [19, 21]: 50 µg/mL; MIC [20, 21]: 50 µg/mL
3 | CCCCCCCCN1CCN(C(=O)NC(C(=O)NC2CN(S(=O)(=O)[O-])C2=O)c2cccs2)C(=O)C1=O.[Na+] (stereo not drawn) [Compound J, Sodium 3-[2-(4-n-octyl-2,3-dioxo-1-piperazinocarboxamido)-2-thienylacetamido]-2-oxoazetidine-1-sulphonate] | 6.25 | >100 | >100 | 3.13 | 0.78 | 6.25 | 3.13 | >100 | 1.56 | 3.13 | 1.56 | 1.56 | 6.25 | 25 | 1.56 | 6.25 | 1.56 | 3.13 | 1.56 | >100 | Minimum inhibitory concentration [17]: 25 µg/mL; Minimum inhibitory concentration [18]: 1.56 µg/mL; Minimum inhibitory concentration [19]: 1.56 µg/mL; Minimum inhibitory concentration [20]: 1.56 µg/mL
